Laboratory results from patent EP0620225B1, “Cephalosporin derivatives” (Basilea Pharmaceutica AG, priority 1993, dated 1994).
In brackets after ≈: the same amount, converted by molar mass. Where a name gives a salt, the structure may show the parent alone. Each block holds one molecule with its values, some of them ahead of it.

Assays:
E. coli ATCC 25922 = assay: MIC, agar dilution method in Mueller Hinton agar; format: cell-based; conditions: Escherichia coli, ATCC25922, read-out: Minimum Inhibiting Concentration Values
Method: (§1) In vitro activity was determined by minimum inhibitory concentration in a microorganism spectum by the agar dilution method in Mueller Hinton agar.

E. coli TEM-1 = assay: MIC, agar dilution method in Mueller Hinton agar; format: cell-based; conditions: Escherichia coli, TEM1, read-out: Minimum Inhibiting Concentration Values
Method: as §1

Prot. vulgaris ATCC 6380 = assay: MIC, agar dilution method in Mueller Hinton agar; format: cell-based; conditions: Proteus vulgaris, ATCC6380, read-out: Minimum Inhibiting Concentration Values
Method: as §1

Ps. aeruginosa 5712 = assay: MIC, agar dilution method in Mueller Hinton agar; format: cell-based; conditions: Pseudomonas aeruginosa, read-out: Minimum Inhibiting Concentration Values
Method: as §1

[1] = test system: Ps. aeruginosa ATCC 27853; assay: MIC, agar dilution method in Mueller Hinton agar; format: cell-based; conditions: Pseudomonas aeruginosa, ATCC27853, read-out: Minimum Inhibiting Concentration Values
Method: as §1

Staph. aureus ATCC 29213 = assay: MIC, agar dilution method in Mueller Hinton agar; format: cell-based; conditions: Staphylococcus aureus, ATCC29213, read-out: Minimum Inhibiting Concentration Values
Method: as §1

Staph. aureus Smith = assay: MIC, agar dilution method in Mueller Hinton agar; format: cell-based; conditions: Staphylococcus aureus, read-out: Minimum Inhibiting Concentration Values
Method: as §1

Str. pneumoniae 6301 = assay: MIC, agar dilution method in Mueller Hinton agar; format: cell-based; conditions: Streptococcus pneumoniae; Str. pneumoniae 6301; read-out: Minimum Inhibiting Concentration Values
Method: as §1

Str. pyogenes 4 = assay: MIC, agar dilution method in Mueller Hinton agar; format: cell-based; conditions: Streptococcus pyogenes, read-out: Minimum Inhibiting Concentration Values
Method: as §1

Escherichia coli 25922 = assay: Efficacy against systemic infections (septicemia) in mice; format: in vivo; conditions: 96 h, survival day 4
Outline: (§2)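 Swiss albino mice (16–20 g) infected i.p. with 4–10× the 48-h LD50 of each strain; compound given p.o. or s.c. at 1 and 3 h post-challenge, plus 5 h for P. aeruginosa BA. Five mice per group; ED50 (mg/kg) by probit analysis of day-4 survival.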

[2] = test system: Pseudomonas aeruginosa BA; assay: as above; format: in vivo; conditions: 96 h, sc (subcutaneous) 1, 3 and 5 h after challenge, survival day 4
Outline: as §2

[3] = test system: Streptococcus pyogenes 15; assay: as above; format: in vivo; conditions: 96 h, Streptococcus pyogenes 15, po (orally) 1 and 3 h after challenge, survival day 4
Outline: as §2

Acinetobacter sp.51-156 = assay: Antibacterial spectrum (MIC), agar dilution; format: cell-based; conditions: SP.51156, read-out: MIC
Method: as §1

B.fragilis ATCC25285 = assay: Antibacterial spectrum (MIC), agar dilution; format: cell-based; conditions: Bacteroides fragilis, read-out: MIC
Method: as §1

C.difficile ZH1 = assay: Antibacterial spectrum (MIC), agar dilution; format: cell-based; conditions: Clostridioides difficile, read-out: MIC
Method: as §1

C.freundii 43 = assay: Antibacterial spectrum (MIC), agar dilution; format: cell-based; conditions: Citrobacter freundii, read-out: MIC
Method: as §1

C.freundii 902 = assay: Antibacterial spectrum (MIC), agar dilution; format: cell-based; conditions: Citrobacter freundii, read-out: MIC
Method: as §1

E.cloacae 908R = assay: Antibacterial spectrum (MIC), agar dilution; format: cell-based; conditions: Enterobacter cloacae, read-out: MIC
Method: as §1

E.cloacae 908SSi = assay: Antibacterial spectrum (MIC), agar dilution; format: cell-based; conditions: Enterobacter cloacae, read-out: MIC
Method: as §1

E.coli 25922 = assay: Antibacterial spectrum (MIC), agar dilution; format: cell-based; conditions: Escherichia coli, read-out: MIC
Method: as §1

E.faecalis 6 = assay: Antibacterial spectrum (MIC), agar dilution; format: cell-based; conditions: Enterococcus faecalis, read-out: MIC
Method: as §1

H.influenzae 1 = assay: Antibacterial spectrum (MIC), agar dilution; format: cell-based; conditions: Haemophilus influenzae, read-out: MIC
Method: as §1

K.pneumoniae 418 = assay: Antibacterial spectrum (MIC), agar dilution; format: cell-based; conditions: Klebsiella pneumoniae, read-out: MIC
Method: as §1

L.monocytogenes BK23 = assay: Antibacterial spectrum (MIC), agar dilution; format: cell-based; conditions: Listeria monocytogenes, read-out: MIC
Method: as §1

M.catarrhalis RA21 = assay: Antibacterial spectrum (MIC), agar dilution; format: cell-based; conditions: Moraxella catarrhalis, read-out: MIC
Method: as §1

M.morganii 6H-137 = assay: Antibacterial spectrum (MIC), agar dilution; format: cell-based; conditions: Morganella morganii, 6H137, read-out: MIC
Method: as §1

N.meningitidis 69480 = assay: Antibacterial spectrum (MIC), agar dilution; format: cell-based; conditions: Neisseria meningitidis, read-out: MIC
Method: as §1

P.aeruginosa 27853 = assay: Antibacterial spectrum (MIC), agar dilution; format: cell-based; conditions: Pseudomonas aeruginosa, read-out: MIC
Method: as §1

P.asaccharolyticus 29743 = assay: Antibacterial spectrum (MIC), agar dilution; format: cell-based; conditions: Peptoniphilus asaccharolyticus, read-out: MIC
Method: as §1

P.mirabilis 2117 = assay: Antibacterial spectrum (MIC), agar dilution; format: cell-based; conditions: Proteus mirabilis, read-out: MIC
Method: as §1

P.vulgaris 1028 = assay: Antibacterial spectrum (MIC), agar dilution; format: cell-based; conditions: Proteus vulgaris, read-out: MIC
Method: as §1

S.agalactiae QK44 = assay: Antibacterial spectrum (MIC), agar dilution; format: cell-based; conditions: Streptococcus agalactiae, read-out: MIC
Method: as §1

S.aureus 6538 = assay: Antibacterial spectrum (MIC), agar dilution; format: cell-based; conditions: Staphylococcus aureus, read-out: MIC
Method: as §1

S.aureus 734 MRSA = assay: Antibacterial spectrum (MIC), agar dilution; format: cell-based; conditions: Staphylococcus aureus, read-out: MIC
Method: as §1

S.marcescens 69438 = assay: Antibacterial spectrum (MIC), agar dilution; format: cell-based; conditions: Serratia marcescens, read-out: MIC
Method: as §1

S.pneumoniae Q19 = assay: Antibacterial spectrum (MIC), agar dilution; format: cell-based; conditions: Streptococcus pneumoniae, read-out: MIC
Method: as §1

S.pyogenes B15 = assay: Antibacterial spectrum (MIC), agar dilution; format: cell-based; conditions: Streptococcus pyogenes, read-out: MIC
Method: as §1

S.viridans group 016 = assay: Antibacterial spectrum (MIC), agar dilution; format: cell-based; conditions: Streptococcus viridans, read-out: MIC
Method: as §1

X.maltophilia 1AC739 = assay: Antibacterial spectrum (MIC), agar dilution; format: cell-based; conditions: Stenotrophomonas maltophilia, read-out: MIC
Method: as §1

S.aureus MSSA = assay: In vitro activity against selected species (MIC50, MIC90, range); format: cell-based; conditions: Staphylococcus aureus, medium MHB (Mueller Hinton Broth)
S.pneumoniae PEN-R = assay: as above; format: cell-based; conditions: Streptococcus pneumoniae; for MIC: MIC range
S.viridans group = assay: as above; format: cell-based; conditions: Streptococcus viridans
E.faecalis [4] = assay: as above; format: cell-based; conditions: Enterococcus faecalis, medium MHA
Method: as §1

S.aureus MRSA = assay: as above; format: cell-based; conditions: Staphylococcus aureus, medium MHA (Mueller Hinton Agar) +NaCl
Method: as §1

E.faecium = assay: In vitro activity against selected species (MIC50, range); format: cell-based; conditions: Enterococcus faecium, medium MHA
Method: as §1

M.catarrhalis = assay: In vitro activity against selected species (MIC50, MIC90, range); format: cell-based; conditions: Moraxella catarrhalis, medium IsoB
S.aureus Smith = assay: Efficacy against systemic infections (septicemia) in mice; format: in vivo; conditions: Staphylococcus aureus, 96 h, sc 1 and 3 h after challenge, survival day 4
Outline: as §2

E.faecalis [5] = assay: In vitro activity against selected species (MIC50, MIC90, range); format: cell-based; conditions: Enterococcus faecalis, medium IsoB
[6] = Escherichia coli 25922, po (orally) 1 and 3 h after challenge
[7] = medium IsoB (Isosensitest Broth)

SMILES: Nc1nc(/C(=N/OCC(=O)O)C(=O)N[C@@H]2C(=O)N3C(C(=O)O)=C(/C=C4\CCN(C5CC5)C4=O)CS[C@H]23)cs1 [C, [6R-[3(E),6α,7β(Z)]]-7-[[(2-Amino-4-thiazolyl)[(carboxy-methoxy)imino]-acetyl]amino]-3-[[1-cyclopropyl-2-oxo-3-pyrrolidinylidene]-methyl]-8-oxo-5-thia-1-azabicyclo[4.2.0]oct-2-ene-2-carboxylic acid disodium salt]
MIC (E. coli ATCC 25922): 0.0313 µg/mL
MIC (E. coli TEM-1): 0.0313 µg/mL
MIC (Prot. vulgaris ATCC 6380): ≤ 0.0156 µg/mL
MIC (Ps. aeruginosa 5712): 4 µg/mL
MIC [1]: 4 µg/mL
MIC (Staph. aureus ATCC 29213): 16 µg/mL
MIC (Staph. aureus Smith): 8 µg/mL
MIC (Str. pneumoniae 6301): 0.0625 µg/mL
MIC (Str. pyogenes 4): 0.125 µg/mL
ED50 (Escherichia coli 25922; [6]): < 0.1 mg/kg
ED50 [2]: 12 mg/kg
ED50 [3]: 0.78 mg/kg

SMILES: C=CC1=C(C(=O)O)N2C(=O)[C@@H](NC(=O)/C(=N\OCC(=O)O)c3csc(N)n3)[C@H]2SC1 [Cefixime, reference compound]
ED50 (Escherichia coli 25922; [6]): 0.5 mg/kg
ED50 [3]: 2 mg/kg

MIC (Acinetobacter sp.51-156): 16 µg/mL (≈ 29.3 µM)
MIC (B.fragilis ATCC25285): 8 µg/mL (≈ 14.6 µM)
MIC (C.difficile ZH1): 8 µg/mL (≈ 14.6 µM)
MIC (C.freundii 43): 4 µg/mL (≈ 7.32 µM)
MIC (C.freundii 902): 0.12 µg/mL (≈ 0.22 µM)
MIC (E.cloacae 908R): 16 µg/mL (≈ 29.3 µM)
MIC (E.cloacae 908SSi): 0.25 µg/mL (≈ 0.457 µM)
MIC (E.coli 25922): 0.12 µg/mL (≈ 0.22 µM)
MIC (E.faecalis 6): 1 µg/mL (≈ 1.83 µM)
MIC (H.influenzae 1): 0.25 µg/mL (≈ 0.457 µM)
MIC (K.pneumoniae 418): 0.12 µg/mL (≈ 0.22 µM)
MIC (L.monocytogenes BK23): 4 µg/mL (≈ 7.32 µM)
MIC (M.catarrhalis RA21): 16 µg/mL (≈ 29.3 µM)
MIC (M.morganii 6H-137): ≤ 0.06 µg/mL
MIC (N.meningitidis 69480): ≤ 0.06 µg/mL
MIC (P.aeruginosa 27853): 16 µg/mL (≈ 29.3 µM)
MIC (P.asaccharolyticus 29743): ≤ 0.12 µg/mL
MIC (P.mirabilis 2117): ≤ 0.06 µg/mL
MIC (P.vulgaris 1028): 1 µg/mL (≈ 1.83 µM)
MIC (S.agalactiae QK44): 0.25 µg/mL (≈ 0.457 µM)
MIC (S.aureus 6538): 0.5 µg/mL (≈ 0.915 µM)
MIC (S.aureus 734 MRSA): 8 µg/mL (≈ 14.6 µM)
MIC (S.marcescens 69438): 1 µg/mL (≈ 1.83 µM)
MIC (S.pneumoniae Q19): ≤ 0.06 µg/mL
MIC (S.pyogenes B15): ≤ 0.06 µg/mL
MIC (S.viridans group 016): 1 µg/mL (≈ 1.83 µM)
MIC (X.maltophilia 1AC739): > 32 µg/mL
MIC (S.aureus MSSA; MIC range): 0.5 to 1 µg/mL (≈ 0.915 to 1.83 µM)
MIC50 (S.aureus MSSA): 1 µg/mL (≈ 1.83 µM)
MIC90 (S.aureus MSSA): 1 µg/mL (≈ 1.83 µM)
MIC (S.pneumoniae PEN-R; [7]): 0.12 to 0.5 µg/mL (≈ 0.22 to 0.915 µM)
MIC (S.pneumoniae PEN-R; medium IsoB + 20% serum): 0.25 to 0.5 µg/mL
MIC50 (S.pneumoniae PEN-R; [7]): 0.25 µg/mL (≈ 0.457 µM)
MIC90 (S.pneumoniae PEN-R; [7]): 0.5 µg/mL (≈ 0.915 µM)
MIC50 (S.pneumoniae PEN-R; medium IsoB + 20% serum): 0.5 µg/mL
MIC50 (S.viridans group): 2 µg/mL (≈ 3.66 µM)
MIC90 (S.viridans group): 2 µg/mL (≈ 3.66 µM)
MIC (S.viridans group; MIC range): 0.12 to 4 µg/mL (≈ 0.22 to 7.32 µM)
MIC (E.faecalis [4]; MIC range): 1 to 2 µg/mL (≈ 1.83 to 3.66 µM)
MIC50 (E.faecalis [4]): 1 µg/mL (≈ 1.83 µM)
MIC90 (E.faecalis [4]): 2 µg/mL (≈ 3.66 µM)
MIC (S.aureus MRSA; MIC range): 8 to 16 µg/mL (≈ 14.6 to 29.3 µM)
MIC50 (S.aureus MRSA): 8 µg/mL (≈ 14.6 µM)
MIC90 (S.aureus MRSA): 8 µg/mL (≈ 14.6 µM)
MIC (E.faecium; MIC range): 1 to 16 µg/mL (≈ 1.83 to 29.3 µM)
MIC50 (E.faecium): 4 µg/mL (≈ 7.32 µM)
MIC (M.catarrhalis; MIC range): 1 to 16 µg/mL (≈ 1.83 to 29.3 µM)
MIC50 (M.catarrhalis): 4 µg/mL (≈ 7.32 µM)
MIC90 (M.catarrhalis): 16 µg/mL (≈ 29.3 µM)
MIC (E.faecalis [5]; MIC range): 0.25 to 2 µg/mL (≈ 0.457 to 3.66 µM)
MIC50 (E.faecalis [5]): 0.5 µg/mL (≈ 0.915 µM)
MIC90 (E.faecalis [5]): 2 µg/mL (≈ 3.66 µM)
SMILES: Nc1nc(/C(=N/O)C(=O)N[C@@H]2C(=O)N3C(C(=O)O)=C(/C=C4\CCN(CC(F)(F)F)C4=O)CS[C@H]23)cs1 [E, [6R-[3(E),6α,7β(Z)]]-7-[[(2-Amino-4-thiazolyl)(hydroxyimino)-acetyl]amino]-3-[[1-(2,2,2-trifluoroethyl)-2-oxo-3-pyrrolidinylidene]-methyl]-8-oxo-5-thia-1-azabicyclo[4.2.0]oct-2-ene-2-carboxylic acid]
ED50 (Escherichia coli 25922; [6]): 3 mg/kg
ED50 (Escherichia coli 25922; Escherichia coli, E.coli 25922, sc 1 and 3 h after challenge): 0.07 mg/kg
ED50 (S.aureus Smith): < 1 mg/kg
